Legend:
[1] = system: Mlph (melanophilin) mRNA in B16-F10 cells; assay: Reduction of melanophilin expression on transcriptional level (qPCR); format: cell-based, Murine
Protocol: (§1) Murine melanoma cell line B16-F10 (BCRC No. 60031)
(§2) a. Rinse the confluent B16-F10 cells with sterile D-PBS then trypsinize all cells and perform cell counting.
b. Seeding 2E+06 cells per 10-cm dish.
(§3) c. Incubate B16F10 cells at 37° C., 5% CO2 for about 24 hours.
d. Prepared 0.5% testing material in Complete Medium.
e. Discard the medium and add 9 mL Complete Medium and 0.5% testing material into B16-F10 cells in 10-cm dish.
f. Incubate B16-F10 cells at 37° C., 5% CO2 for about 1 hour.
g. After incubating for about 1 hour, discard the supernatant and wash the B16-F10 cells with sterile D-PBS.
h. Add 3 mL Trizol to suspend cells and qPCR test by Welgene Biotech Co., Ltd (outsourcing test).

[2] = system: Mlph (melanophilin) protein in B16-F10 cells; assay: Reduction of melanophilin expression on translational level (western blot); format: cell-based, Murine; settings: B16-F10 w/FSK; for Mlph protein expression level, Average / Mlph protein expression level, Entry 1 / Mlph protein expression level, Entry 2 / Mlph protein expression level, Entry 3: about 48 hours, Positive Control 100%
Protocol: as §1
Complete Medium (as negative control): DMEM with 10% Fetal Bovine Serum
Testing Medium (as positive control): 20 μM forskolin (FSK) in Complete Medium
as §2
b. Seeding 2.5E+05 cells per 6-cm dish.
as §3
d. Prepared 0.5%/0.25%/0.125% testing material in Testing Medium.
e. Discard the medium and add 3 mL controls and testing material into B16-F10 cells in 6-cm dish.
f. Incubate B16-F10 cells at 37° C., 5% CO2 for about 48 hour.
g. After incubating for about 48 hours, discard the supernatant and wash the B16-F10 cells with sterile D-PBS.
h. Mlph protein expression is measured by western blot. Western blot conditions: • Loading protein amount: 40 μg/well • Protein transfer by Semi-dry Transfer Apparatus • Immunoblot with Primary Ab (1:250 dilution) at 4° C. overnight • Incubate with secondary Ab (1:5000 dilution) at room temperature for 1 hour • Detection was performed with the ECL system • Relative quantification of protein expression was measured by IMAGEJ free software). β-actin was used as the internal control for normalization • Data Analysis: […]

[3] = system: skin color (hyper pigmentation); assay: Skin whitening test: skin color changes (L* value), Minolta chromameter; format: in vivo, human; settings: for Hyper pigmentation Reduction - Skin Color Data, Max % Improvement / Hyper pigmentation Reduction - Skin Color Data, % Difference: 0.2% Ac-Gly-β-Ala sample; for Hyper pigmentation Reduction - Skin Color Data, % Difference: L* value
Protocol: In this example, the in-vivo skin test is finished by AMA Laboratories USA. The skin color changes are evaluated with Minolta chromameter color computer system. The Age spot photography is evaluated with Reverse Photo Engineering Quantitative Analysis.
In terms of skin color changes, the participants were women aged 25-48 years old, wherein nine of the participants were caucasian, and one was Asian. The participants were tested before (baseline), and after using 14, 28, 56 days with Minolta chromameter color computer system to perform the skin color change evaluation. And the samples used for the skin color change evaluation is 0.2% Ac-Gly-β-Ala.

[4] = system: Human IL-6 secretion, Normal Human Epidermal Keratinocytes (NHEK); assay: Human IL-6 production in UVB-irradiated NHEK (ELISA); format: cell-based; settings: for Human IL-6 Content, Average: 40 mJ/cm^2 UVB; for Human IL-6 Content, Average / Human IL-6 Content, Entry 1 / Human IL-6 Content, Entry 2 / Human IL-6 Content, Entry 3 / Human IL-6 Content, Entry4: Positive Control 100%; for Human IL-6 Content, Entry 1 / Human IL-6 Content, Entry 2: passage 2 + 2, 40 mJ/cm^2 UVB; for Human IL-6 Content, Entry 3 / Human IL-6 Content, Entry4: passage 2 + 3, 40 mJ/cm^2 UVB
Protocol: (§4) Normal Human Epidermal Keratinocytes (NHEK) (PromoCell No. C-12008);
(§5) Positive Control: 40 mJ/cm^2 UVB,
(§6) Negative Control: No UVB irradiation;
(§7) a. Rinse the confluent NHEK cells with sterile D-PBS then trypsinize all cells and perform cell counting.
(§8) b. Dilute the cell density to 4˜8E+04/mL and seed 0.5 mL cell liquid (equals to 2˜4E+04 cells) each well in 24 well plate.
(§9) c. Incubate NHEK cells at 37° C., 5% CO2 until subconfluence.
(§10) d. Prepared dosing solution of testing material in Complete Medium: 0.4%, 0.2%, 0.1%, 0.05%.
(§11) e. Rinse the NHEK cells with sterile D-PBS and discard rinse buffer. Add 400 μL of controls and testing materials in different concentrations into NHEK cells in 24 well plates.
(§12) f. Pre-incubate NHEK cells with testing material at 37° C., 5% CO2 for about 6 hours.
(§13) g. After pre-incubating for about 6 hours, wash the NHEK cells with sterile D-PBS for twice then add […] sterile D-PBS for UVB irradiation.
(§14) h. UVB intensity is about 2300 μW/cm^2 and UVB energy is about 40 mJ/cm^2.
(§15) i. After UVB irradiation, discard sterile D-PBS and wash again. Add 400 μL of the same dosing solution in to each wells.
(§16) j. Post-incubate at 37° C., 5% CO2 for about 18 hours.
(§17) k. After post-incubating for 18 hours, collect the supernatant of controls and testing materials.
(§18) l. Determine the IL-6/IL-8 content of the supernatant by R&D ELISA kit as mentioned previously.
(§19) Normal Human Epidermal Keratinocytes (NHEK) were treated by the above-mentioned glycine derivatives for evaluating their anti-inflammatory effect on keratinocytes in this example.

[5] = system: Human IL-8 secretion, Normal Human Epidermal Keratinocytes (NHEK); assay: Human IL-8 production in UVB-irradiated NHEK (ELISA); format: cell-based; settings: for Human IL-8 Content, Average: 40 mJ/cm^2 UVB; for Human IL-8 Content, Average / Human IL-8 Content, Entry 1 / Human IL-8 Content, Entry 2 / Human IL-8 Content, Entry 3: Positive Control 100%; for Human IL-8 Content, Entry 1: passage 2 + 2, 40 mJ/cm^2 UVB; for Human IL-8 Content, Entry 2 / Human IL-8 Content, Entry 3: passage 2 + 3, 40 mJ/cm^2 UVB
Protocol: as §4, §5, §6, §7, §8, §9, §10, §11, §12, §13, §14, §15, §16, §17, §18, §19

[6] = 0.5% Ac-Gly-β-Ala, B16-F10, about 1 hour, Control 100%

With CC(=O)NCC(=O)NCCC(=O)O [Ac-Gly-β-Ala, 3-(2-acetylamino-acetylamino)-propionic acid] the “Mlph mRNA expression level, Average” value [1, 6] was 55%, the “Mlph mRNA expression level, Entry 1” value [1, 6] was 80% and the “Mlph mRNA expression level, Entry 2” value [1, 6] was 40%. For the same compound, the “Mlph mRNA expression level, Entry 3” value [1, 6] was 46%, the “effect on Mlph in transcriptional (mRNA) level” value ([1]; 0.5%, B16-F10) was “inhibitory effect” and the “Mlph protein expression level, Average” value ([2]; 0.125%) was 71.3%. The “Mlph protein expression level, Entry 1” value ([2]; 0.125%) was 66.8%, the “Mlph protein expression level, Entry 2” value ([2]; 0.125%) was 65.7% and the “Mlph protein expression level, Entry 3” value ([2]; 0.125%) was 81.2%. For the same compound, the “Mlph protein expression level, Average” value ([2]; 0.25%) was 62.0%, the “Mlph protein expression level, Entry 1” value ([2]; 0.25%) was 49.4% and the “Mlph protein expression level, Entry 2” value ([2]; 0.25%) was 12.8%. The “Mlph protein expression level, Entry 3” value ([2]; 0.25%) was 123.8%, the “Mlph protein expression level, Average” value ([2]; 0.5%) was 24.3% and the “Mlph protein expression level, Entry 1” value ([2]; 0.5%) was 36.5%. The “Mlph protein expression level, Entry 2” value ([2]; 0.5%) was 10.6%, the “Mlph protein expression level, Entry 3” value ([2]; 0.5%) was 25.8% and the “effect on Mlph in translational (protein) level” value [2] was “inhibitory effect”. For the same compound, the “Hyper pigmentation Reduction - Skin Color Data, Max % Improvement” value ([3]; Day 14) was 62.84%, the “Hyper pigmentation Reduction - Skin Color Data, % Difference” value ([3]; Day 14 vs baseline) was 26.90%* and the “Hyper pigmentation Reduction - Skin Color Data, Max % Improvement” value ([3]; Day 28) was 87.34%. For the same compound, the “Hyper pigmentation Reduction - Skin Color Data, % Difference” value ([3]; Day 28 vs baseline) was 41.07%*, the “Hyper pigmentation Reduction - Skin Color Data, Max % Improvement” value ([3]; Day 56) was 87.97% and the “Hyper pigmentation Reduction - Skin Color Data, % Difference” value ([3]; Day 56 vs baseline) was 41.64%*. The “L* value of skin” value ([3]; test sample with 0.2% Ac-Gly-β-Ala) was “can increase the L* value of skin”, the “IL-6 production, dose dependence” value ([4]; 0.05%-0.4%, UVB) was “dose-dependently inhibited” and the “Human IL-6 Content, Average” value ([4]; Table 6, 0.05%) was 59%. The “Human IL-6 Content, Entry 1” value ([4]; Table 6, 0.05%) was 68%, the “Human IL-6 Content, Entry 2” value ([4]; Table 6, 0.05%) was 58% and the “Human IL-6 Content, Entry 3” value ([4]; Table 6, 0.05%) was 49%. The “Human IL-6 Content, Entry4” value ([4]; Table 6, 0.05%) was 62%, the “Human IL-6 Content, Average” value ([4]; Table 6, 0.10%) was 34% and the “Human IL-6 Content, Entry 1” value ([4]; Table 6, 0.10%) was 43%. The “Human IL-6 Content, Entry 2” value ([4]; Table 6, 0.10%) was 25%, the “Human IL-6 Content, Entry 3” value ([4]; Table 6, 0.10%) was 28% and the “Human IL-6 Content, Entry4” value ([4]; Table 6, 0.10%) was 42%. For the same compound, the “Human IL-6 Content, Average” value ([4]; Table 6, 0.20%) was 15%, the “Human IL-6 Content, Entry 1” value ([4]; Table 6, 0.20%) was 19% and the “Human IL-6 Content, Entry 2” value ([4]; Table 6, 0.20%) was 10%. The “Human IL-6 Content, Entry 3” value ([4]; Table 6, 0.20%) was 10%, the “Human IL-6 Content, Entry4” value ([4]; Table 6, 0.20%) was 20% and the “Human IL-6 Content, Entry 1” value ([4]; Table 6, 0.40%) was 0%. For the same compound, the “Human IL-6 Content, Entry 2” value ([4]; Table 6, 0.40%) was 0%, the “Human IL-6 Content, Entry 3” value ([4]; Table 6, 0.40%) was 0% and the “Human IL-6 Content, Entry4” value ([4]; Table 6, 0.40%) was 10%. The “IL-8 production, dose dependence” value ([5]; 0.05%-0.4%, UVB) was “inhibited IL-8 production in dose-dependent manner”, the “Human IL-8 Content, Average” value ([5]; Table 7, 0.05%) was 97% and the “Human IL-8 Content, Entry 1” value ([5]; Table 7, 0.05%) was 107%. For the same compound, the “Human IL-8 Content, Entry 2” value ([5]; Table 7, 0.05%) was 81%, the “Human IL-8 Content, Entry 3” value ([5]; Table 7, 0.05%) was 103% and the “Human IL-8 Content, Average” value ([5]; Table 7, 0.10%) was 80%. The “Human IL-8 Content, Entry 1” value ([5]; Table 7, 0.10%) was 76%, the “Human IL-8 Content, Entry 2” value ([5]; Table 7, 0.10%) was 70% and the “Human IL-8 Content, Entry 3” value ([5]; Table 7, 0.10%) was 93%. For the same compound, the “Human IL-8 Content, Average” value ([5]; Table 7, 0.20%) was 69%, the “Human IL-8 Content, Entry 1” value ([5]; Table 7, 0.20%) was 77% and the “Human IL-8 Content, Entry 2” value ([5]; Table 7, 0.20%) was 72%. For the same compound, the “Human IL-8 Content, Entry 3” value ([5]; Table 7, 0.20%) was 59%, the “Human IL-8 Content, Entry 1” value ([5]; Table 7, 0.40%) was 10% and the “Human IL-8 Content, Entry 2” value ([5]; Table 7, 0.40%) was 5%. For the same compound, the “Human IL-8 Content, Entry 3” value ([5]; Table 7, 0.40%) was 13%.

Source: patent publication US20140314697A1, “Method for Inhibiting Inflammation and Reducing Melanophilin Expression with Glycine Derivatives And the Composition Thereof” (CORUM INC., priority 2013, published 2014)
